Patent publication US20100210635A1, “RENIN INHIBITORS” (Takeda Pharmaceutical Company Limited, priority 2006, published 2010)
pIC50: −log10 of the molar value.

Target: T1, Recombinant human renin (Homo sapiens, UniProt P00797)
T1 construct: isolate the active form (residues 67-406); made in house; host or cells: FreeStyle 293-F cells (transient expression of pcDNA3.1(+)/hREN)
T1 sequence (P00797 67-406): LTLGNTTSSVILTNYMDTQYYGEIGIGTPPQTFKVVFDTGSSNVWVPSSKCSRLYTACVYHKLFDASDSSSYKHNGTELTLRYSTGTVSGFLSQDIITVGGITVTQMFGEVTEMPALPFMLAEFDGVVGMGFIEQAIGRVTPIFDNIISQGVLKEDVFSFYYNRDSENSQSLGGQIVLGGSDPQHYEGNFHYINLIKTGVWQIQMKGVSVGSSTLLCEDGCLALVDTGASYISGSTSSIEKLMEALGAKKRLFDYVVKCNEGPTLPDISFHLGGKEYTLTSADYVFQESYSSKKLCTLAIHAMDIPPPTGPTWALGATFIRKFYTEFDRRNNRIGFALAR
Experiment: In vitro enzymatic activity assay of Renin inhibitors (fluorescence, QXL520/HiLyteFluo488 peptide substrate)
Type: biochemical
Conditions: recombinant human renin 3 nM, 1 μM substrate, 37° C., pH 7.4; values given as ranges; read-out: IC50 of Exemplified Compounds Against Renin
Method in brief: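 Recombinant human renin (active form, residues 67-406; 3 nM final) pre-incubated 10 min at 37 °C with compounds in Hepes buffer pH 7.4 with 0.1 mg/ml BSA (optionally plus 2% BSA), 5% DMSO. Reaction started with 1 μM FRET peptide substrate; fluorescence (ex 485/em 538 nm) change over 1 h at 37 °C versus vehicle gives % inhibition, and pIC50/IC50 come from curve fitting.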

Row | pIC50 | SMILES
1 | > 6.30 | Cc1ccc(Oc2ccccc2CCC(=O)N2CCNC[C@H]2Cc2ccccc2)cc1 [Example 50, (R)-1-(2-benzylpiperazin-1-yl)-3-(2-(p-tolyloxy)phenyl)propan-1-one]
2 | > 6.30 | CC(=O)NCCc1ccccc1Cc1ccccc1CCC(=O)N1CCNC[C@H]1Cc1ccc(OCC(=O)NS(C)(=O)=O)cc1 [Example 91, (R)-2-(4-((1-(3-(2-(2-(2-acetamidoethyl)benzyl)phenyl)propanoyl)piperazin-2-yl)methyl)phenoxy)-N-(methylsulfonyl)acetamide]
